Values quoted from earlier work in patent publication US20150283066A1, “VAGINAL DANAZOL COMBINED WITH NON STEROIDAL ANTI INFLAMMATORY DRUGS (NSAIDS) COMPOSITIONS” (MEDIGLOBE LTD, priority 2011, published 2015).

Settings: literature (University of Helsinki); stated jointly for NSAIDs and tranexamic acid

Structure (SMILES): NC[C@H]1CC[C@H](C(=O)O)CC1 [tranexamic acid]
- reduction of menstrual blood loss: 20-60%
